Test results from ChEMBL document CHEMBL2086297, “Reduced pulmonary surfactant interaction of daptomycin analogs via tryptophan replacement with alternative amino acids” (2012).
Values after ≈ are worked out from the molar mass of the structure shown.

Experiments:
Format in all cases: functional
[1] = test system: Staphylococcus aureus; assay: Antibacterial activity against methicillin-susceptible Staphylococcus aureus ATCC 29213 grown on calcium supplemented Mueller-Hinton broth by broth microdilution method
[2] = test system: Staphylococcus aureus; assay: Antibacterial activity against methicillin-susceptible Staphylococcus aureus ATCC 29213 by broth microdilution method in presence of 1% pulmonary surfactant; conditions: ATCC 29213, Pulmonary surfactant
[3] = test system: Staphylococcus aureus; assay: Antibacterial activity against methicillin-susceptible Staphylococcus aureus ATCC 29213 by broth microdilution method in presence of 5% pulmonary surfactant; conditions: ATCC 29213, Pulmonary surfactant
[4] = test system: Staphylococcus aureus; assay: Antibacterial activity against methicillin-susceptible Staphylococcus aureus ATCC 29213 by broth microdilution method in presence of 4% human serum albumin
[5] = test system: Streptococcus pneumoniae; assay: Antibacterial activity against Streptococcus pneumoniae

SMILES | MIC [1] | MIC [2] | MIC [3] | MIC [4] | MIC90 [5]
CCCCCCCCCC(=O)N[C@@H](Cc1ccc(O)cc1)C(=O)N[C@@H](CC(N)=O)C(=O)N[C@@H](CC(=O)O)C(=O)N[C@@H]1C(=O)NCC(=O)N[C@@H](CCCN)C(=O)N[C@@H](CC(=O)O)C(=O)N[C@H](C)C(=O)N[C@@H](CC(=O)O)C(=O)NCC(=O)N[C@H](CO)C(=O)N[C@@H]([C@@H](C)CC(=O)O)C(=O)N[C@@H](CC(=O)c2ccccc2N)C(=O)O[C@@H]1C | > 32 µg/mL | > 32 µg/mL | > 32 µg/mL | > 32 µg/mL | 
CCCCCCCCCC(=O)N[C@@H](Cc1ccc(C(=O)O)cc1)C(=O)N[C@@H](CC(N)=O)C(=O)N[C@@H](CC(=O)O)C(=O)N[C@@H]1C(=O)NCC(=O)N[C@@H](CCCN)C(=O)N[C@@H](CC(=O)O)C(=O)N[C@H](C)C(=O)N[C@@H](CC(=O)O)C(=O)NCC(=O)N[C@H](CO)C(=O)N[C@@H]([C@@H](C)CC(=O)O)C(=O)N[C@@H](CC(=O)c2ccccc2N)C(=O)O[C@@H]1C | > 32 µg/mL | > 32 µg/mL | > 32 µg/mL | > 32 µg/mL | 
CCCCCCCCCC(=O)N[C@@H](Cc1ccc(N)cc1)C(=O)N[C@@H](CC(N)=O)C(=O)N[C@@H](CC(=O)O)C(=O)N[C@@H]1C(=O)NCC(=O)N[C@@H](CCCN)C(=O)N[C@@H](CC(=O)O)C(=O)N[C@H](C)C(=O)N[C@@H](CC(=O)O)C(=O)NCC(=O)N[C@H](CO)C(=O)N[C@@H]([C@@H](C)CC(=O)O)C(=O)N[C@@H](CC(=O)c2ccccc2N)C(=O)O[C@@H]1C | 16 µg/mL (≈ 10 µM) | 16 µg/mL | 32 µg/mL | 32 µg/mL | 
CCCCCCCCCC(=O)N[C@@H](Cc1ccc(N(C)C)cc1)C(=O)N[C@@H](CC(N)=O)C(=O)N[C@@H](CC(=O)O)C(=O)N[C@@H]1C(=O)NCC(=O)N[C@@H](CCCN)C(=O)N[C@@H](CC(=O)O)C(=O)N[C@H](C)C(=O)N[C@@H](CC(=O)O)C(=O)NCC(=O)N[C@H](CO)C(=O)N[C@@H]([C@@H](C)CC(=O)O)C(=O)N[C@@H](CC(=O)c2ccccc2N)C(=O)O[C@@H]1C | 2 µg/mL (≈ 1.23 µM) | 2 µg/mL | 2 µg/mL | 4 µg/mL | 
CCCCCCCCCC(=O)N[C@@H](Cc1ccc(N2CCCC2)cc1)C(=O)N[C@@H](CC(N)=O)C(=O)N[C@@H](CC(=O)O)C(=O)N[C@@H]1C(=O)NCC(=O)N[C@@H](CCCN)C(=O)N[C@@H](CC(=O)O)C(=O)N[C@H](C)C(=O)N[C@@H](CC(=O)O)C(=O)NCC(=O)N[C@H](CO)C(=O)N[C@@H]([C@@H](C)CC(=O)O)C(=O)N[C@@H](CC(=O)c2ccccc2N)C(=O)O[C@@H]1C | 1 µg/mL (≈ 0.606 µM) | 4 µg/mL | 4 µg/mL | 32 µg/mL | 
CCCCCCCCCC(=O)N[C@@H](CCc1ccccc1)C(=O)N[C@@H](CC(N)=O)C(=O)N[C@@H](CC(=O)O)C(=O)N[C@@H]1C(=O)NCC(=O)N[C@@H](CCCN)C(=O)N[C@@H](CC(=O)O)C(=O)N[C@H](C)C(=O)N[C@@H](CC(=O)O)C(=O)NCC(=O)N[C@H](CO)C(=O)N[C@@H]([C@@H](C)CC(=O)O)C(=O)N[C@@H](CC(=O)c2ccccc2N)C(=O)O[C@@H]1C | 1 µg/mL (≈ 0.627 µM) | 8 µg/mL | 32 µg/mL | 4 µg/mL | 
CCCCCCCCCC(=O)N[C@@H](CCc1ccc(OC)cc1)C(=O)N[C@@H](CC(N)=O)C(=O)N[C@@H](CC(=O)O)C(=O)N[C@@H]1C(=O)NCC(=O)N[C@@H](CCCN)C(=O)N[C@@H](CC(=O)O)C(=O)N[C@H](C)C(=O)N[C@@H](CC(=O)O)C(=O)NCC(=O)N[C@H](CO)C(=O)N[C@@H]([C@@H](C)CC(=O)O)C(=O)N[C@@H](CC(=O)c2ccccc2N)C(=O)O[C@@H]1C | 2 µg/mL (≈ 1.23 µM) | 8 µg/mL | 32 µg/mL | 8 µg/mL | 
CCCCCCCCCC(=O)N[C@@H](COc1ccccc1)C(=O)N[C@@H](CC(N)=O)C(=O)N[C@@H](CC(=O)O)C(=O)N[C@@H]1C(=O)NCC(=O)N[C@@H](CCCN)C(=O)N[C@@H](CC(=O)O)C(=O)N[C@H](C)C(=O)N[C@@H](CC(=O)O)C(=O)NCC(=O)N[C@H](CO)C(=O)N[C@@H]([C@@H](C)CC(=O)O)C(=O)N[C@@H](CC(=O)c2ccccc2N)C(=O)O[C@@H]1C | 4 µg/mL (≈ 2.5 µM) | 32 µg/mL | > 32 µg/mL | 32 µg/mL | 
CCCCCCCCCC(=O)N[C@@H](Cc1c[nH]c2ccccc12)C(=O)N[C@H](CC(N)=O)C(=O)N[C@@H](CC(=O)O)C(=O)N[C@@H]1C(=O)NCC(=O)N[C@@H](CCCN)C(=O)N[C@@H](CC(=O)O)C(=O)N[C@H](C)C(=O)N[C@@H](CC(=O)O)C(=O)NCC(=O)N[C@H](CO)C(=O)N[C@@H]([C@H](C)CC(=O)O)C(=O)N[C@@H](CC(=O)c2ccccc2N)C(=O)O[C@@H]1C | 1 µg/mL (≈ 0.617 µM) | 16 µg/mL | > 32 µg/mL | 2 µg/mL | 0.06 µg/mL (≈ 0.037 µM)
CO/N=C(\C(=O)N[C@@H]1C(=O)N2C(C(=O)O)=C(CSc3nc(=O)c(O)nn3C)CS[C@H]12)c1csc(N)n1 [CEFTRIAXONE] | 2 µg/mL (≈ 3.61 µM) | 2 µg/mL | 2 µg/mL | 8 µg/mL | 
